# Assays:
# HCT-116 = assay: Growth inhibition of human HCT116 cells assessed as cell growth at 100 uM incubated for 48 hrs by sulforhodamine B assay relative to control; format: functional; conditions: HCT-116, 48 h, read-out: Activity
# HL-60(TB) [1] = assay: Growth inhibition of human HL-60(TB) cells assessed as cell growth at 1 uM incubated for 48 hrs by sulforhodamine B assay relative to control; format: functional; conditions: HL-60, 48 h, read-out: Activity
# T47D = assay: Growth inhibition of human T47D cells incubated for 48 hrs by sulforhodamine B assay; format: functional, cell-based
# M14 = assay: Growth inhibition of human M14 cells assessed as cell growth at 1 uM incubated for 48 hrs by sulforhodamine B assay relative to control; format: functional; conditions: M14, 48 h, read-out: Activity
# RXF 393 = assay: Growth inhibition of human RXF393 cells assessed as cell growth at 0.01 uM incubated for 48 hrs by sulforhodamine B assay relative to control; format: functional; conditions: RXF 393, 48 h, read-out: Activity
# MDA-MB-468 = assay: Growth inhibition of human MDA-MB-468 cells assessed as cell growth at 1 uM incubated for 48 hrs by sulforhodamine B assay relative to control; format: functional; conditions: MDA-MB-468, 48 h, read-out: Activity
# Malme-3M = assay: Growth inhibition of human MALME-3M cells assessed as cell growth at 0.01 uM incubated for 48 hrs by sulforhodamine B assay relative to control; format: functional; conditions: read-out: Activity
# SNB-75 = assay: Growth inhibition of human SNB75 cells incubated for 48 hrs by sulforhodamine B assay; format: functional, cell-based; conditions: SNB-75, 48 h
# U-251 = assay: Growth inhibition of human U251 cells assessed as cell growth at 0.1 uM incubated for 48 hrs by sulforhodamine B assay relative to control; format: functional; conditions: U-251, 48 h, read-out: Activity
# SK-MEL-28 = assay: Growth inhibition of human SK-MEL-28 cells incubated for 48 hrs by sulforhodamine B assay; format: functional, cell-based; conditions: SK-MEL-28, 48 h
# K562 = assay: Growth inhibition of human K562 cells assessed as cell growth at 0.01 uM incubated for 48 hrs by sulforhodamine B assay relative to control; format: functional; conditions: K562, 48 h, read-out: Activity
# SR = assay: Growth inhibition of human SR cells assessed as cell growth at 100 uM incubated for 48 hrs by sulforhodamine B assay relative to control; format: functional; conditions: read-out: Activity
# UACC-257 = assay: Growth inhibition of human UACC257 cells incubated for 48 hrs by sulforhodamine B assay; format: functional, cell-based; conditions: UACC-257, 48 h
# KM12 = assay: Growth inhibition of human KM12 cells incubated for 48 hrs by sulforhodamine B assay; format: functional, cell-based; conditions: KM12, 48 h
# HT-29 [2] = assay: Growth inhibition of human HT-29 cells assessed as cell growth at 1 uM incubated for 48 hrs by sulforhodamine B assay relative to control; format: functional; conditions: HT-29, 48 h, read-out: Activity
# CAKI-1 = assay: Growth inhibition of human Caki1 cells assessed as cell growth at 0.01 uM incubated for 48 hrs by sulforhodamine B assay relative to control; format: functional; conditions: CAKI-1, 48 h, read-out: Activity
# HL-60(TB) [3] = assay: Growth inhibition of human HL-60(TB) cells assessed as cell growth at 100 uM incubated for 48 hrs by sulforhodamine B assay relative to control; format: functional; conditions: HL-60, 48 h, read-out: Activity
# PC-3 = assay: Growth inhibition of human PC3 cells assessed as cell growth at 1 uM incubated for 48 hrs by sulforhodamine B assay relative to control; format: functional; conditions: PC-3, 48 h, read-out: Activity
# MDA-MB-231 = assay: Growth inhibition of human MDA-MB-231 cells incubated for 48 hrs by sulforhodamine B assay; format: functional, cell-based; conditions: MDA-MB-231, 48 h
# HT-29 [4] = assay: Growth inhibition of human HT-29 cells assessed as cell growth at 0.01 uM incubated for 48 hrs by sulforhodamine B assay relative to control; format: functional; conditions: HT-29, 48 h, read-out: Activity
# MOLT-4 [5] = assay: Growth inhibition of human MOLT4 cells assessed as cell growth at 100 uM incubated for 48 hrs by sulforhodamine B assay relative to control; format: functional; conditions: MOLT-4, 48 h, read-out: Activity
# A549 = assay: Growth inhibition of human A549/ATCC cells incubated for 48 hrs by sulforhodamine B assay; format: functional, cell-based; conditions: A549, 48 h
# NCI/ADR-RES = assay: Growth inhibition of human NCI/ADR-RES cells assessed as cell growth at 100 uM incubated for 48 hrs by sulforhodamine B assay relative to control; format: functional; conditions: read-out: Activity
# UO-31 = assay: Growth inhibition of human UO31 cells incubated for 48 hrs by sulforhodamine B assay; format: functional, cell-based; conditions: UO-31, 48 h
# MOLT-4 [6] = assay: Growth inhibition of human MOLT4 cells assessed as cell growth at 0.1 uM incubated for 48 hrs by sulforhodamine B assay relative to control; format: functional; conditions: MOLT-4, 48 h, read-out: Activity
# CCRF-CEM = assay: Growth inhibition of human CCRF-CEM cells assessed as cell growth at 100 uM incubated for 48 hrs by sulforhodamine B assay relative to control; format: functional; conditions: read-out: Activity
# IGROV-1 = assay: Growth inhibition of human IGROV1 cells assessed as cell growth at 0.1 uM incubated for 48 hrs by sulforhodamine B assay relative to control; format: functional; conditions: IGROV-1, 48 h, read-out: Activity
# MCF7 = assay: Growth inhibition of human MCF7 cells assessed as cell growth at 1 uM incubated for 48 hrs by sulforhodamine B assay relative to control; format: functional; conditions: MCF7, 48 h, read-out: Activity
# HL-60(TB) [7] = assay: Growth inhibition of human HL-60(TB) cells assessed as cell growth at 0.01 uM incubated for 48 hrs by sulforhodamine B assay relative to control; format: functional; conditions: HL-60, 48 h, read-out: Activity
# [8] = read-out: LC50 (the source's name)
# [9] = read-out: pLC50 (the source's name) (converted)
structure (smiles),measurement,setting,value
COc1cc(Cl)cc(-c2nn(-c3cccc(NC(=O)c4ccc(N5CCOCC5)c(C(F)(F)F)c4)c3)cc2-c2ccncc2)c1,growth at 100 µM,HCT-116,25%
same,growth at 1 µM,HL-60(TB) [1],105%
same,GI50,T47D; read-out: GI50,1.04 µM
same,CC50,T47D; [8],> 100 µM
same,TGI,T47D; read-out: TGI,> 100 µM
same,GI50,T47D; read-out: pGI50 (converted),10.5 µM
same,CC50,T47D; [9],> 100 µM
same,TGI,T47D; read-out: pTGI (converted),> 100 µM
same,growth at 1 µM,M14,58%
same,growth at 0.01 µM,RXF 393,97%
same,growth at 1 µM,MDA-MB-468,56%
same,growth at 0.01 µM,Malme-3M,91%
same,GI50,SNB-75; read-out: GI50,2 µM
same,CC50,SNB-75; [8],> 100 µM
same,TGI,SNB-75; read-out: TGI,> 100 µM
same,GI50,SNB-75; read-out: pGI50 (converted),2.63 µM
same,CC50,SNB-75; [9],> 100 µM
same,TGI,SNB-75; read-out: pTGI (converted),> 100 µM
same,growth at 0.1 µM,U-251,95%
same,GI50,SK-MEL-28; read-out: GI50,1.48 µM
same,CC50,SK-MEL-28; [8],> 100 µM
same,TGI,SK-MEL-28; read-out: TGI,> 100 µM
same,GI50,SK-MEL-28; read-out: pGI50 (converted),14.8 µM
same,CC50,SK-MEL-28; [9],> 100 µM
same,TGI,SK-MEL-28; read-out: pTGI (converted),> 100 µM
same,growth at 0.01 µM,K562,100%
same,growth at 100 µM,SR,4%
same,GI50,UACC-257; read-out: GI50,2.17 µM
same,CC50,UACC-257; [8],> 100 µM
same,TGI,UACC-257; read-out: TGI,69.1 µM
same,GI50,UACC-257; read-out: pGI50 (converted),21.9 µM
same,CC50,UACC-257; [9],> 100 µM
same,TGI,UACC-257; read-out: pTGI (converted),69.2 µM
same,GI50,KM12; read-out: GI50,5.38 µM
same,CC50,KM12; [8],> 100 µM
same,TGI,KM12; read-out: TGI,> 100 µM
same,GI50,KM12; read-out: pGI50 (converted),5.37 µM
same,CC50,KM12; [9],> 100 µM
same,TGI,KM12; read-out: pTGI (converted),> 100 µM
same,growth at 1 µM,HT-29 [2],93%
same,growth at 0.01 µM,CAKI-1,98%
same,growth at 100 µM,HL-60(TB) [3],-15%
same,growth at 1 µM,PC-3,73%
same,GI50,MDA-MB-231; read-out: GI50,2.53 µM
same,CC50,MDA-MB-231; [8],> 100 µM
same,TGI,MDA-MB-231; read-out: TGI,32.4 µM
same,GI50,MDA-MB-231; read-out: pGI50 (converted),2.82 µM
same,CC50,MDA-MB-231; [9],> 100 µM
same,TGI,MDA-MB-231; read-out: pTGI (converted),32.4 µM
same,growth at 0.01 µM,HT-29 [4],100%
same,growth at 100 µM,MOLT-4 [5],29%
same,IC50,A549,9.15 µM
same,GI50,A549; read-out: GI50,9.15 µM
same,CC50,A549; [8],> 100 µM
same,TGI,A549; read-out: TGI,> 100 µM
same,GI50,A549; read-out: pGI50 (converted),9.12 µM
same,CC50,A549; [9],> 100 µM
same,TGI,A549; read-out: pTGI (converted),> 100 µM
same,growth at 100 µM,NCI/ADR-RES,30%
same,IC50,UO-31,4.5 µM
same,GI50,UO-31; read-out: GI50,4.5 µM
same,CC50,UO-31; [8],> 100 µM
same,TGI,UO-31; read-out: TGI,> 100 µM
same,GI50,UO-31; read-out: pGI50 (converted),4.47 µM
same,CC50,UO-31; [9],> 100 µM
same,TGI,UO-31; read-out: pTGI (converted),> 100 µM
same,growth at 0.1 µM,MOLT-4 [6],90%
same,growth at 100 µM,CCRF-CEM,18%
same,growth at 0.1 µM,IGROV-1,100%
same,growth at 1 µM,MCF7,90%
same,growth at 0.01 µM,HL-60(TB) [7],94%
